Reference: US20260256811A1, “Humoral Immune Activators for the Treatment of Humoral Immunosuppressed Pathologies, Cancer and Infectious Disease and Humoral Immune Suppressors for the Treatment of Inflammatory Diseases” (Navrogen, Inc., priority 2022, published 2026)
Values belong to the molecule of their own block, whether it stands above or below them.

What was measured:
human CD16a-158F = target: T1, human CD16a-158F (Homo sapiens, UniProt P08637); assay: ELISA: CD16a-158F-HIS binding to coated pertuzumab (PTZ); settings: for suppression of CD16a-PTZ interaction: 2.5 μg/mL PTZ coat, human CD16a-158F-HIS probe, P≤0.005; for enhancement of CD16a-158F binding to IgG (PTZ): 10 μM, P<0.005
T1 construct: made in house
Experimental: (§1) Analysis of Compound 2 derived analogs described in Example 3 were conducted testing for enhanced CD16a FcR binding to IgG via ELISA. Briefly, 96 well plates were coated with PTZ as described above and probed with CD16a-158F-HIS in the presence of 10 μM parental Compound 2 and R5/R6 Compound analogs 22-34 to assay for those mediating enhanced CD16a-IgG binding. […] To further evaluate the impact of enhanced binding these compounds were tested for enhancing human PBMC ADCC as described above. Human breast cancer SKBR3 cells were plated in black 96-well microplates at 5,000 cell/well in R7.5 and grown overnight at 37° C. in 5% CO2. The next day 50,000 PBMCs in R1 medium were added per well in the presence of 1 or 5 μM of each compound or ethanol (EtOH) vehicle control in triplicates. Wells treated with EtOH and PTZ without PBMCs were used as a negative control. Cultures were incubated for 24 hours at 37° C. in 5% CO2 in triplicate. After incubation, target cell viability was quantified via Cell Titer-GLO (Promega) using a Varioskan plate reader. Units are shown as relative luminescent units (RLU).
Analogs of this class may be useful for suppressing inflammatory diseases. […] The teaching here has shown that the Compound 1, 2, 3 and 4 scaffolds can be utilized to add chemical groups that can enhance their activity for CD16a stimulation. Here we provide an example of how these scaffolds can be used to develop CD16a antagonists to suppress CD16a-IgG interactions and downstream activities, including production of proinflammatory cytokines such as IFNγ. FIGS. 10 and 13 show ELISA binding assays as described in Example 1. Briefly, 96-well clear microplates were coated with 2.5 μg/mL pertuzumab (PTZ) IgG or HSA as negative control (no PTZ). Wells were then probed with human CD16a-158F-HIS with or without compounds to monitor CD16a-PTZ binding. […] These scaffolds embody a primary inventive step that is taught within this application.

in vivo = settings: mouse, po, 100 mg/kg
Experimental: To further determine the pharmacologic properties of Compound 27, we tested for its oral bioavailability and ability to activate NK cells systemically in mice as determined measuring NK cell activation markers IFNγ and TNFα. For oral bioavailability, mice were fed a standard laboratory rodent diet and housed in individual cages on a 12-hour light and 12-hour dark cycle with at […] and relative humidity at 50±20%. Animals are fasted overnight before dosing, with food returned after 6 hours at which time blood samples are obtained. Water is provided ad libitum throughout the study. Compound 27 was prepared by grinding its precipitated powder into fine particles and suspended in 0.5% hydroxypropyl methylcellulose (HPMC) in water. Three animals were dosed via gavage needle for oral administration at 100 mg/kg (10 mL/kg). Blood samples (25-30 μL per sample) were taken via the saphenous vein at 5, 15, 30 minutes, and 1, 2, 4, 6, 8, 24 hours after administration. Additional blood samples (150-200 μL per sample) were taken at 24 hours for cytokine analysis. Blood samples were collected in Greiner MiniCollect K2EDTA tubes, placed on ice, and within 30 minutes, centrifuged at 15,000 g for 5 min to obtain plasma samples with additional 50-100 μLs of each plasma sample collected at 24 hours. All plasma samples were stored at −70° C. until analysis.
Bioanalysis of plasma samples were conducted as follows. Plasma samples were prepared using three volumes of acetonitrile containing internal standard to one volume of plasma to precipitate proteins. Samples were centrifuged at 3000 g for 10 minutes and supernatant removed for analysis by LC-MS/MS. Calibration standards and quality controls were made by preparation of a 1 mg/mL stock solution and subsequently a series of working solutions in methanol:water (1:1, v/v), which were spiked into blank plasma to yield a series of calibration standard samples ranging from 1 ng/ml to 10 μg/mL and quality control samples at three concentration levels (low, middle and high). All incurred plasma samples were treated identically to the calibration standards and quality control samples. LC-MS/MS analysis was performed utilizing multiple reaction monitoring for detection of characteristic ions for each drug candidate, additional related analytes and internal standard. Plasma concentrations are measured as described above to determine a concentration vs. time profile. The area under the plasma concentration vs time curve (AUC) is calculated using the linear trapezoidal method, known by those skilled in the art. Fitting of the data to obtain pharmacokinetic (PK) parameters was carried out using non-compartmental analysis.
Key PK parameters reported following extravascular administration are as follows: terminal half-life t1/2, maximum plasma concentration Cmax, time to reach maximum plasma concentration tmax, area under the plasma concentration vs. time curve AUC, mean residence time MRT, and bioavailability F. All parameters are expressed for individual animals as well as mean, standard deviation, and coefficient of variation and are commonly known by those skilled in the art.

SKBR3 cells = assay: ADCC killing of SKBR3 cells via pertuzumab with human PBMCs; format: cell-based; settings: 1 or 5 μM, PTZ, 24 hours, P<0.0000075 over Compound 2
Experimental: as §1

[1] = Metabolic stability in human liver microsomes; format: in vitro ADME
Experimental: (§2) We next tested Compounds 2, 26, 27 and 33 for metabolic stability using human and mouse microsomes. For each test compound, samples were diluted a final concentration of 2 μg/mL in 25 mM potassium phosphate buffer with liver microsomes of each species at a final concentration of 0.5 mg/mL. The enzyme reaction was initiated by the addition of NADPH reagent at a final concentration of 1 mM. For negative control samples, NADPH reagent was not added. Samples were incubated at 37° C. on a 50-RPM orbital shaker, and an aliquot was removed at pre-determined timepoints at 0, 5, 10, 15, 30, and 60 minutes. Samples were then precipitated with three volume of acetonitrile containing propranolol as an internal standard, and centrifuged for 10 min at 2000 g then analyzed by LC/MS/MS. Note that compounds undergo only Phase I metabolism in liver microsomes in the presence of NADPH cofactors. Data interpretation of results are based on percent parent compound remaining relative to 0-minute incubation samples, from which the elimination half-life is calculated based on the natural log of % compound remaining vs. time plot. The following parameters were calculated to estimate the compound's in vitro metabolic stability: Cmp=concentration of microsomal proteins (mg/mL); t1/2=the half-life (min), where t1/2 is equal to 0.693/slope; CLint=the intrinsic hepatic clearance (μL/min/mg), where CLint is equal to 0.693/(t1/2×Cmp).

[2] = Metabolic stability in mouse liver microsomes; format: in vitro ADME
Experimental: as §2

NK cells = assay: Tolerability and NK cell activation markers after repeated oral dosing in mice; format: in vivo, mouse
Experimental: To determine the tolerability and ability to systemically activate NK cells in mice, we tested orally administered Compound 27 to mice. Six mice were randomized into treatment groups vehicle control (water) and 100 mg/kg Compound 27 all suspended in 0.5% hydroxypropyl methylcellulose. Mice were dosed orally on days 1-5, 7, 9, 11, 13, 15 and sacrificed on day 16 at which time plasma was collected. Tolerability was based on Day 1 bodyweight of each mouse. The maximum tolerated dose is determined as weight loss exceeding 20% or >10% of animals in a group die.
To confirm that oral administration of Compound 27 activated NK cells, the NK activation markers IFNγ and TNFα were measured from day 16 harvested plasma via ELISA using methods described in Example 1. […] These scaffolds embody a primary inventive step that is taught within this application.

CD16a-158F FcR = target: T2, CD16a-158F FcR (Homo sapiens, UniProt P08637); assay: Jurkat-CD16a-158F-luciferase (JKT-CD16a) reporter bioassay; format: cell-based
T2 construct: host or cells: Jurkat (JKT-CD16a luciferase reporter line)
T2 sequence (P08637 17-254): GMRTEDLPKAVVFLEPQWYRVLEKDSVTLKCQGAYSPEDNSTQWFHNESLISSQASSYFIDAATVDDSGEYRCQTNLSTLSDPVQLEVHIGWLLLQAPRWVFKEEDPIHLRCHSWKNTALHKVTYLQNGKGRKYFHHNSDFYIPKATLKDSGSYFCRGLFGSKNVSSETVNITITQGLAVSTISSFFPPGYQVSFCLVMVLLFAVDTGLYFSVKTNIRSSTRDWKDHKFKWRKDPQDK
T2 sequence (P20963 22-164 partner): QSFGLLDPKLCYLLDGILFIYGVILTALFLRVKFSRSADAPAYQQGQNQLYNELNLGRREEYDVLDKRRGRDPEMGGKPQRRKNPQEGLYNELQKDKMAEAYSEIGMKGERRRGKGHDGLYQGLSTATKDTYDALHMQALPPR

T1 sequence (P08637 with tags, fused parts or gaps): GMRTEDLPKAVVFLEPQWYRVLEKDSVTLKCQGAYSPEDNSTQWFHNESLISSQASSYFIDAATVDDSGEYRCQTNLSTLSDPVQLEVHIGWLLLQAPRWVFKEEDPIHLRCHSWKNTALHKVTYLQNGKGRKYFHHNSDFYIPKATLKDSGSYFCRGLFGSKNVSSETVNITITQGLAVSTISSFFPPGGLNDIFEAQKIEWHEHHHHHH

Compound: C[C@H](CCCNCCOCCO)[C@H]1CC[C@@]2(C)C3CC[C@H]4C(C)(C)[C@@H](O)CC[C@@]45C[C@@]35CC[C@]12C (stereo partly drawn) [Compound 32]
suppression of CD16a-PTZ interaction (human CD16a-158F): ~ 49%

Compound: C[C@H](CCCN1CCCCC1)[C@H]1CC[C@@]2(C)C3CC[C@H]4C(C)(C)[C@@H](O)CC[C@@]45C[C@@]35CC[C@]12C (stereo partly drawn) [Compound 27]
enhancement of CD16a-158F binding to IgG (PTZ) (human CD16a-158F): significantly enhanced | AUC(0-t) (in vivo): 7750 ng·h/mL | Cmax (in vivo): 511 ng/mL | Tmax (in vivo): ≤ 6 h | bioavailability (in vivo): 11.7% | concentration at 24 hours (in vivo): 242 ng/mL | half-life (in vivo): 18.3 h | enhancement of ADCC killing of SKBR3 cells (SKBR3 cells): enhanced ADCC most significantly | half-life at 2 μg/mL ([1]; human, microsomes): 701 min | microsomal CLint at 2 μg/mL ([1]; human, microsomes): 1.98 µL/min/mg | half-life at 2 μg/mL ([2]; mouse, microsomes): 610 min | microsomal CLint at 2 μg/mL ([2]; mouse, microsomes): 2.27 µL/min/mg | tolerability of multiple oral dosing (health, body weight) (NK cells; 100 mg/kg oral on days 1-5, 7, 9, 11, 13, 15): well tolerated | plasma NK cell activation markers IFNγ and TNFα (NK cells; 100 mg/kg oral, day 16 plasma, ELISA, vs vehicle, P<0.0056): upregulated

Compound: C[C@H](CCCNCCOCCOCCOCCOCCOCCOCCOCCOCCOCCOCCOCCO)[C@H]1CC[C@@]2(C)C3CC[C@H]4C(C)(C)[C@@H](O)CC[C@@]45C[C@@]35CC[C@]12C (stereo partly drawn) [Compound 33]
enhancement of CD16a-158F binding to IgG (PTZ) (human CD16a-158F): significantly enhanced | enhancement of ADCC killing of SKBR3 cells (SKBR3 cells): enhanced ADCC most significantly | half-life at 2 μg/mL ([1]; human, microsomes): 64.5 min | microsomal CLint at 2 μg/mL ([1]; human, microsomes): 21.5 µL/min/mg | half-life at 2 μg/mL ([2]; mouse, microsomes): 65.8 min | microsomal CLint at 2 μg/mL ([2]; mouse, microsomes): 21.1 µL/min/mg

JKT-CD16a activation (luciferase RLU) in the presence of IgG (CD16a-158F FcR; OV-CD20 target cells plus 2.5 μg/mL rituximab, 12-18 hours, vs vehicle or no compound): significant enhancement | JKT-CD16a-158F FcR activation (luciferase RLU) in the absence of IgG antibody (CD16a-158F FcR; OV-CD20 target cells without antibody, lower levels than with IgG): stimulated
Compound: CC(C)=CCC[C@@H](C)[C@H]1CC[C@@]2(C)C3=C(CC[C@]12C)[C@@]1(C)CC[C@H](O)C(C)(C)[C@@H]1CC3 [Compound 1, lanosta-8,24-dien-3β-ol]

Compound: C[C@H](CCC(=O)O)[C@H]1CC[C@@]2(C)C3CC[C@H]4C(C)(C)[C@@H](O)CC[C@@]45C[C@@]35CC[C@]12C (stereo partly drawn) [Compound 29]
suppression of CD16a-PTZ interaction (human CD16a-158F): ~ 49%

Compound: CC(C)NCCC[C@@H](C)[C@H]1CC[C@@]2(C)C3CC[C@H]4C(C)(C)[C@@H](O)CC[C@@]45C[C@@]35CC[C@]12C (stereo partly drawn) [Compound 26]
enhancement of CD16a-158F binding to IgG (PTZ) (human CD16a-158F): significantly enhanced | microsomal CLint at 2 μg/mL ([1]; human liver microsomes 0.5 mg/mL, 2 μg/mL compound, NADPH, read-out: CLint (μL/min/mg protein) human): 3.04 µL/min/mg | half-life at 2 μg/mL ([1]; human liver microsomes 0.5 mg/mL, 2 μg/mL compound, NADPH, read-out: T½ (minutes) human): 456 min | microsomal CLint at 2 μg/mL ([2]; mouse liver microsomes 0.5 mg/mL, 2 μg/mL compound, NADPH, read-out: CLint (μL/min/mg protein) mouse): 2.16 µL/min/mg | half-life at 2 μg/mL ([2]; mouse liver microsomes 0.5 mg/mL, 2 μg/mL compound, NADPH, read-out: T½ (minutes) mouse): 641 min

Compound: C[C@H](CCCO)[C@H]1CC[C@@]2(C)C3CC[C@H]4C(C)(C)[C@@H](O)CC[C@@]45C[C@@]35CC[C@]12C (stereo partly drawn) [Compound 31]
suppression of CD16a-PTZ interaction (human CD16a-158F): ~ 49%
